Assay results published in ChEMBL document CHEMBL5375983, “Discovery of YSR734: A Covalent HDAC Inhibitor with Cellular Activity in Acute Myeloid Leukemia and Duchenne Muscular Dystrophy” (J Med Chem, 2023).

Key:
Histone deacetylase 1 = Histone deacetylase 1 (Homo sapiens, UniProt Q13547); assay: Inhibition of HDAC1 (unknown origin) using 6-carboxyfluorescein peptide as substrate preincubated with compound for 6 hrs followed by substrate addition by electrophoretic mobility shift assay
[1] = Glutathione reactivity assessed as compound consumption at 500 nM measured after 1 to 3 hrs by LC-MS/MS analysis; assay type: ADME; settings: glutathione solution, time 1-3 hrs, read-out: Activity
MV4-11 [2] = assay: Induction of apoptosis in human MV4-11 cells assessed as healthy cells at 4 uM measured after 6 hrs by annexin V-FITC/PI staining based FACS assay (reference value: 63.50%); assay type: functional
Histone deacetylase 8 = target: T1, Histone deacetylase 8 (Homo sapiens, UniProt Q9BY41); assay: Inhibition of full length recombinant human HDAC8 expressed in Sf9 cells using 6-carboxyfluorescein peptide as substrate preincubated with compound followed by substrate addition and measured after 3 hrs by electrophoretic mobility shift assay
T1 sequence (Q9BY41 whole entry): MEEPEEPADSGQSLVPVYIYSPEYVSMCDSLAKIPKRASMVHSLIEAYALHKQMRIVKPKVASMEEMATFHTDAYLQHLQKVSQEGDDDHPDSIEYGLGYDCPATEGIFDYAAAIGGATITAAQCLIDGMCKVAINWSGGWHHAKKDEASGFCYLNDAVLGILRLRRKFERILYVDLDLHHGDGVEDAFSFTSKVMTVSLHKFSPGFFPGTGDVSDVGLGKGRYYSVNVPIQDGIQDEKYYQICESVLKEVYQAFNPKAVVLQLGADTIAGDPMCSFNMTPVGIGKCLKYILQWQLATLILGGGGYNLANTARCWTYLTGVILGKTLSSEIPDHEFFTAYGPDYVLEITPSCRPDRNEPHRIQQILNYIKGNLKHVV

Histone deacetylase 5 = Histone deacetylase 5 (Homo sapiens, UniProt Q9UQL6); assay: Inhibition of HDAC5 (unknown origin) using 6-carboxyfluorescein peptide as substrate preincubated with compound for 6 hrs followed by substrate addition by electrophoretic mobility shift assay
Histone deacetylase 5, sequence (Q9UQL6 whole entry): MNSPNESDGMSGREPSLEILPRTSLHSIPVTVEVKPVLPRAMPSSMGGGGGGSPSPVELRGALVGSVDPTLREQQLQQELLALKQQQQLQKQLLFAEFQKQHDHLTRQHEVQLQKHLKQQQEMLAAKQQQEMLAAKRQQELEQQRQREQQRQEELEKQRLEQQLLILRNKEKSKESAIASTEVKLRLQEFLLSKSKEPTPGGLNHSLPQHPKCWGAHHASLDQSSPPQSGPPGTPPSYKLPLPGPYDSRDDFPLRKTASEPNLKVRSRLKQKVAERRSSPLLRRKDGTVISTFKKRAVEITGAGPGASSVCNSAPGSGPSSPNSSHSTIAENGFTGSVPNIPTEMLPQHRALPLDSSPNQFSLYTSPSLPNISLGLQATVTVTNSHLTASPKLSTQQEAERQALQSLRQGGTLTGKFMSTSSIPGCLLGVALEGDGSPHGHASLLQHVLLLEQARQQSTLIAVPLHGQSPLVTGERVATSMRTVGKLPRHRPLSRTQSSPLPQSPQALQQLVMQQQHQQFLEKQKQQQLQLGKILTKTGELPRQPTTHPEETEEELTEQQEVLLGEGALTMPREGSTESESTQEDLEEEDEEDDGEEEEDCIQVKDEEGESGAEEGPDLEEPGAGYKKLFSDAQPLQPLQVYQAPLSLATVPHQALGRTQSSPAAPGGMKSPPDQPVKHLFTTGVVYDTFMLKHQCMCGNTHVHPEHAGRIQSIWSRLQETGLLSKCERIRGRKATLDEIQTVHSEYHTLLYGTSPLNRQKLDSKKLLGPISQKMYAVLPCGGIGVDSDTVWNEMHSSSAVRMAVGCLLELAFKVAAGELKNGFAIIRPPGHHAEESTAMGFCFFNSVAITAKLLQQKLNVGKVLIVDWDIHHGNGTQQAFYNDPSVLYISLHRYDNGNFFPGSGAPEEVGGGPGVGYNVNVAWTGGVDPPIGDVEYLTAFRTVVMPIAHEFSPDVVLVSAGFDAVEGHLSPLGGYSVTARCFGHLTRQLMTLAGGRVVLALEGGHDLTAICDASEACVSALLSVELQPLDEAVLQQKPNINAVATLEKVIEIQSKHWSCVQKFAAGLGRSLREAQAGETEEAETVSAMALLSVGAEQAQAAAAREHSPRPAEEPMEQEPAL

Histone deacetylase 7 = target: T2, Histone deacetylase 7 (Homo sapiens, UniProt Q8WUI4); assay: Inhibition of HDAC7 (unknown origin) using 6-carboxyfluorescein peptide as substrate preincubated with compound for 6 hrs followed by substrate addition by electrophoretic mobility shift assay
T2 sequence (Q8WUI4 whole entry): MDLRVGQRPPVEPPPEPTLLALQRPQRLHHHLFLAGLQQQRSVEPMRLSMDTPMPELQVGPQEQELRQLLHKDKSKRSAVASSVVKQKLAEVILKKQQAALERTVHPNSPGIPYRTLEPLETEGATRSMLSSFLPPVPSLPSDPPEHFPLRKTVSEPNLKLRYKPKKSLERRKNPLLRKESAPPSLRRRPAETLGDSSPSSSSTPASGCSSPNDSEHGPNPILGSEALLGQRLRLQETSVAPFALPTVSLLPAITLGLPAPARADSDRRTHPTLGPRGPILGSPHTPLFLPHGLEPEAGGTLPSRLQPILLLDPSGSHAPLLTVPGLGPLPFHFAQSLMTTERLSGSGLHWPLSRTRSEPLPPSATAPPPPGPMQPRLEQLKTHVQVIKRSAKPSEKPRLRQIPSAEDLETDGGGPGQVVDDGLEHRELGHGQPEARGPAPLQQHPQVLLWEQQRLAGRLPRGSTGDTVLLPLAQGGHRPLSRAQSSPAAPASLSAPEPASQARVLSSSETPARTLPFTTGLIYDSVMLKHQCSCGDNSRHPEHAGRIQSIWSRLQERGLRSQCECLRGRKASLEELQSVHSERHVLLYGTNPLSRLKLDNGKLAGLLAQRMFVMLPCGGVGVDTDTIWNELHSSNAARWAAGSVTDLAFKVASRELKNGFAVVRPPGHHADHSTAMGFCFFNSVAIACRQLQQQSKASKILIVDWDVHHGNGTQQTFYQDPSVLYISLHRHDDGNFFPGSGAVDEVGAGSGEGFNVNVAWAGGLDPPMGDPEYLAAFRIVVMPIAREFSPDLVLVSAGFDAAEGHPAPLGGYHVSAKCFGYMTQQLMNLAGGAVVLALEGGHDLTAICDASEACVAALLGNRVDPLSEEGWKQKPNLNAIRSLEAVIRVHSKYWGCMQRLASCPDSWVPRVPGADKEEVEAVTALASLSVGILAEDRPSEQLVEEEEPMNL

MV4-11 [3] = assay: Induction of apoptosis in human MV4-11 cells assessed as healthy cells at 1 uM measured after 6 hrs by annexin V-FITC/PI staining based FACS assay (reference value: 63.50%); assay type: functional
Histone deacetylase 2 [4] = target: T3, Histone deacetylase 2 (Homo sapiens, UniProt Q92769); assay: Inhibition of HDAC2 (unknown origin) using 6-carboxyfluorescein peptide as substrate preincubated with compound for 6 hrs followed by substrate addition by electrophoretic mobility shift assay
T3 sequence (Q92769 whole entry): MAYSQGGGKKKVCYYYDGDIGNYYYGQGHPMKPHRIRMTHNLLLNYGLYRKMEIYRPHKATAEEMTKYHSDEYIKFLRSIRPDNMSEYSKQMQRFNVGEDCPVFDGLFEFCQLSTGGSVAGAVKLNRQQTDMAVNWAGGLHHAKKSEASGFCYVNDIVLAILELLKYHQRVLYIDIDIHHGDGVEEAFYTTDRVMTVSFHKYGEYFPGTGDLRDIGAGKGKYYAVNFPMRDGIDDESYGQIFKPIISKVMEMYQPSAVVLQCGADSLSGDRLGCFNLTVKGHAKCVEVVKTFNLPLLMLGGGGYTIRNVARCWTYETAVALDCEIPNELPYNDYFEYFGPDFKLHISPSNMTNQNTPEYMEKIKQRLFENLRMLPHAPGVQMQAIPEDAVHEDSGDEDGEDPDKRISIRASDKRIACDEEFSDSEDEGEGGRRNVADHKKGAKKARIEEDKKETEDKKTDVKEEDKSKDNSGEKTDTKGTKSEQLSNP

Histone deacetylase 4 = Histone deacetylase 4 (Homo sapiens, UniProt P56524); assay: Inhibition of HDAC4 (unknown origin) using 6-carboxyfluorescein peptide as substrate preincubated with compound for 6 hrs followed by substrate addition by electrophoretic mobility shift assay
Histone deacetylase 4, sequence (P56524 whole entry): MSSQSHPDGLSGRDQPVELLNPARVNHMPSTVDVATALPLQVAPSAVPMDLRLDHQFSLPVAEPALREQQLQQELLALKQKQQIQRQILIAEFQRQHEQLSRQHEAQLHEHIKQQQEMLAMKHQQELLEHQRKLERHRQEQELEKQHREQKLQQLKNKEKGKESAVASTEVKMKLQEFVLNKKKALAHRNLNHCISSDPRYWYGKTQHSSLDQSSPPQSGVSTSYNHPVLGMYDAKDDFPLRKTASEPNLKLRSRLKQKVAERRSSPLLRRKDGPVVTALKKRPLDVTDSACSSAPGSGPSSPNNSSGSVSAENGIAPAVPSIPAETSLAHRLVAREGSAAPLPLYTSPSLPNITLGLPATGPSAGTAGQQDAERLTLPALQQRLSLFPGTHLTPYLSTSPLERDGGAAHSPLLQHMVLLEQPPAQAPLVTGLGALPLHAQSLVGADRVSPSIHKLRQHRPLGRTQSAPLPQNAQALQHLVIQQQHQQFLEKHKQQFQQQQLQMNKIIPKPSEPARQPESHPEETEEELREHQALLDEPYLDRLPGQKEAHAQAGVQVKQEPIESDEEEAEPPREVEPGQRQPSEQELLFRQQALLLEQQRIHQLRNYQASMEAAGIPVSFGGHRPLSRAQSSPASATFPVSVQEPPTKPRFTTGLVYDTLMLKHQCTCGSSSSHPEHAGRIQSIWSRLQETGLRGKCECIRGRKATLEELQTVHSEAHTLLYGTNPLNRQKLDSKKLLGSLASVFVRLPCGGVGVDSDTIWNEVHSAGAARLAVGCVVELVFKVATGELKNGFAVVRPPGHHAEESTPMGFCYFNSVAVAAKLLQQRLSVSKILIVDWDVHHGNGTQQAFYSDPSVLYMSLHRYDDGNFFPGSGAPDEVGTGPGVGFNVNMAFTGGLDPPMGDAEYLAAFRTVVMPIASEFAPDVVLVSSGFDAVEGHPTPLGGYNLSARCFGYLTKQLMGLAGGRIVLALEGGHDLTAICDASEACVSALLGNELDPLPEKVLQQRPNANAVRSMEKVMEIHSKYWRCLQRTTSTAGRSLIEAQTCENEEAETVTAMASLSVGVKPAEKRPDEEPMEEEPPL

Histone deacetylase 2 [5] = target: T3, Histone deacetylase 2; assay: Inhibition of HDAC2 (unknown origin) using 6-carboxyfluorescein peptide as substrate preincubated with compound followed by substrate addition by electrophoretic mobility shift assay

Histone deacetylase 1, sequence (Q13547 whole entry): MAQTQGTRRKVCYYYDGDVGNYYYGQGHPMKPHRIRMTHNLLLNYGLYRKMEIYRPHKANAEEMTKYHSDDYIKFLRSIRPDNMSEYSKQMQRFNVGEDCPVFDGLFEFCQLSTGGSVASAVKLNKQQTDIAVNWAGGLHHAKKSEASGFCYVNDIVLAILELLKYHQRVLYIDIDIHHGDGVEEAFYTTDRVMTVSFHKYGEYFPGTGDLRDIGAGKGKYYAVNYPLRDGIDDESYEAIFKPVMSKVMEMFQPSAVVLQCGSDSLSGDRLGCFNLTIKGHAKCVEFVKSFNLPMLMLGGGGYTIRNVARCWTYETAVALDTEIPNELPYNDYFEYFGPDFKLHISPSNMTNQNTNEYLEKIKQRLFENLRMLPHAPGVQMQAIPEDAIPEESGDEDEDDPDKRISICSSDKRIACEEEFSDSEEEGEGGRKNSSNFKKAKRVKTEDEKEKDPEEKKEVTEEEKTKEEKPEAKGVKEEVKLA

## Nc1ccccc1NC(=O)c1ccc(CNC(=O)OC2CCN(S(=O)(=O)c3c(F)c(F)c(F)c(F)c3F)CC2)cc1
Histone deacetylase 1
  IC50: 0.109 µM
[1]
  degraded at 0.5 µM: > 50%
MV4-11 [2]
  Activity: 4.57%
Histone deacetylase 8
  IC50: > 10 µM
Histone deacetylase 5
  IC50: > 10 µM
Histone deacetylase 7
  IC50: > 10 µM
MV4-11 [3]
  Activity: 23.54%
Histone deacetylase 2 [4]
  IC50: 0.154 µM
Histone deacetylase 4
  IC50: > 10 µM
Histone deacetylase 2 [5]
  IC50: 0.808 µM
